Assay results as given in patent US11484561B2, “Morus extracts rich in N-acids of imino sugars and or pipecolic acids” (Phynova Limited, priority 2011, dated 2022).
Counter-ions that a name gives are not always drawn.

Tests used:
Type in all cases: biochemical
α-D-glucosidase (Yeast) = target: T1, α-D-glucosidase (Yeast) (Saccharomyces cerevisiae, UniProt P53341); assay: Glycosidase assay, α-D-glucosidase (Yeast)
T1 construct: purchased Sigma-Aldrich
Protocol: (§1) The assays used p-nitrophenyl-substrates and commercial enzymes purchased from Sigma-Aldrich. Enzymes were assayed at 27° C. in 0.1M citric acid/0.2M disodium hydrogen phosphate buffers at the optimum pH for the enzyme. The incubation mixture consisted of 10 μl enzyme solution, 10 μl of 10 mg/ml aqueous solution of extract and 50 μl of the appropriate 5 mM p-nitrophenyl substrate made up in buffer at the optimum pH for the enzyme. The reactions were stopped by addition of 70 μl 0.4M glycine (pH 10.4) during the exponential phase of the reaction, which had been determined at the beginning using uninhibited assays in which water replaced mulberry fractions. Final absorbances were read at 405 nm using a Versamax microplate reader (Molecular Devices). Assays were carried out in triplicate, and the values given are means of the three replicates per assay. Results are expressed as % inhibition.
(§2) Substrates are 10 mM p-nitrophenyl-glycopyranosides. Enzymes are purchased from Sigma and run at the pH optima

[1] = test system: α-D-glucosidase (Bacillus); assay: Glycosidase assay, α-D-glucosidase (Bacillus)
Protocol: as §1, §2

α-D-glucosidase (rice) = target: T2, α-D-glucosidase (rice) (Oryza sativa subsp. japonica, UniProt Q653V7); assay: Glycosidase assay, α-D-glucosidase (rice)
T2 construct: purchased Sigma-Aldrich
T2 sequence (Q653V7 34-885): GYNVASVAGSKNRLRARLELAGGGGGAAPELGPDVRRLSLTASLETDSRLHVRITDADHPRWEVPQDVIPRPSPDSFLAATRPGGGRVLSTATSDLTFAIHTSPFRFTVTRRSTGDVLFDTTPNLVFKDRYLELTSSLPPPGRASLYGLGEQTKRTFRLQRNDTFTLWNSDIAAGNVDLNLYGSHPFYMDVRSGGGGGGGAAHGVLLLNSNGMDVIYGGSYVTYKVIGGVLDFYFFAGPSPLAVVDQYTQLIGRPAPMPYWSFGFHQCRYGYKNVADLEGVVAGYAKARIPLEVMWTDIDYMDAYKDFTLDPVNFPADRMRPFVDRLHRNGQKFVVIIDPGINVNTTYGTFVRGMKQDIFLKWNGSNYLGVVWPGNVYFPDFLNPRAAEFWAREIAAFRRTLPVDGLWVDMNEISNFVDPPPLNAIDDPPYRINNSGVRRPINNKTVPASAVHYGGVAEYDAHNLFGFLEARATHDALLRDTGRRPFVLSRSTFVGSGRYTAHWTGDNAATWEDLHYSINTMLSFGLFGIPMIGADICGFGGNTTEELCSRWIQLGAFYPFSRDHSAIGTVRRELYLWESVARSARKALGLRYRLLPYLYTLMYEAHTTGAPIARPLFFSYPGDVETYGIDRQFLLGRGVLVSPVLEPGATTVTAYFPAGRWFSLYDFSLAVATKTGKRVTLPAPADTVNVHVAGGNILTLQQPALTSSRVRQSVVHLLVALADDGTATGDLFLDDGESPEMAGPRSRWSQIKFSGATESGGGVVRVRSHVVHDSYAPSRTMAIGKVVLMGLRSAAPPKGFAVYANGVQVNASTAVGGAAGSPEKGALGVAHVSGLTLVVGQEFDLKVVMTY
Protocol: as §1, §2

β-D-glucosidase (almond) = assay: Glycosidase assay, β-D-glucosidase (almond)
Protocol: as §1, §2

[2] = target: T3, α-D-galactosidase (green coffee bean) (Coffea arabica, UniProt Q42656); assay: Glycosidase assay, α-D-galactosidase (green coffee bean); details: % inhibition; for α-D-galactosidase coffee bean: Table 6, concentration not given (method: 10 mg/ml solution)
T3 construct: purchased Sigma-Aldrich
T3 sequence (Q42656 16-378): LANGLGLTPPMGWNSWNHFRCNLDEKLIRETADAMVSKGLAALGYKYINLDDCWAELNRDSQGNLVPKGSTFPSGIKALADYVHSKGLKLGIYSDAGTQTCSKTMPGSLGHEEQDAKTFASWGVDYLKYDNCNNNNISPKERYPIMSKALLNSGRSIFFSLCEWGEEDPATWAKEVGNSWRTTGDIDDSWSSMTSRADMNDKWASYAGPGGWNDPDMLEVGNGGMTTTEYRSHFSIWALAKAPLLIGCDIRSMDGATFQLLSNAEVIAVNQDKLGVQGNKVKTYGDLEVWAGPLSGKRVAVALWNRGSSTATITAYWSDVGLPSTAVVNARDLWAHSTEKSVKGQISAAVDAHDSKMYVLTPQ
Protocol: as §1, §2

[3] = target: T4, β-D-galactosidase (bovine) (Bos taurus, UniProt Q58D55); assay: Glycosidase assay, β-D-galactosidase (bovine)
T4 construct: purchased Sigma-Aldrich
T4 sequence (Q58D55 28-653): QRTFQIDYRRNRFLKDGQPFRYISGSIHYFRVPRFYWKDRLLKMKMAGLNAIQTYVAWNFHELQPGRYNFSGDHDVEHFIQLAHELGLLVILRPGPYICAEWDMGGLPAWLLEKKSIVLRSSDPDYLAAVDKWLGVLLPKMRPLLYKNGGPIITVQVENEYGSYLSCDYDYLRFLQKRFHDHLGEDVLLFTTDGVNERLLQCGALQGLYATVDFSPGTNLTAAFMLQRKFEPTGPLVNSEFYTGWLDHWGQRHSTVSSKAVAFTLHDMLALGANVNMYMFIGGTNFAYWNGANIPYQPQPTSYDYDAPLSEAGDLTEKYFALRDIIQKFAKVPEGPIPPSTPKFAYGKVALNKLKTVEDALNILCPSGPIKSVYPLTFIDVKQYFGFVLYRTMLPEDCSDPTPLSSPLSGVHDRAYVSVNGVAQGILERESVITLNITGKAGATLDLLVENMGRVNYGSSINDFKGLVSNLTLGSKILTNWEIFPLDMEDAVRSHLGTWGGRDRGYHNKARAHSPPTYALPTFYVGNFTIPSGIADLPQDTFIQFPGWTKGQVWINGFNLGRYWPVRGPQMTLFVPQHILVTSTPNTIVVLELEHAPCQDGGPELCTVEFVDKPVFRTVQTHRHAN
Protocol: as §1, §2

[4] = target: T5, α-D-mannosidase (Jack bean) (Canavalia ensiformis, UniProt C0HJB3); assay: Glycosidase assay, α-D-mannosidase (Jack bean); details: % inhibition
T5 construct: purchased Sigma-Aldrich
T5 sequence (C0HJB3 1-562 limits assumed): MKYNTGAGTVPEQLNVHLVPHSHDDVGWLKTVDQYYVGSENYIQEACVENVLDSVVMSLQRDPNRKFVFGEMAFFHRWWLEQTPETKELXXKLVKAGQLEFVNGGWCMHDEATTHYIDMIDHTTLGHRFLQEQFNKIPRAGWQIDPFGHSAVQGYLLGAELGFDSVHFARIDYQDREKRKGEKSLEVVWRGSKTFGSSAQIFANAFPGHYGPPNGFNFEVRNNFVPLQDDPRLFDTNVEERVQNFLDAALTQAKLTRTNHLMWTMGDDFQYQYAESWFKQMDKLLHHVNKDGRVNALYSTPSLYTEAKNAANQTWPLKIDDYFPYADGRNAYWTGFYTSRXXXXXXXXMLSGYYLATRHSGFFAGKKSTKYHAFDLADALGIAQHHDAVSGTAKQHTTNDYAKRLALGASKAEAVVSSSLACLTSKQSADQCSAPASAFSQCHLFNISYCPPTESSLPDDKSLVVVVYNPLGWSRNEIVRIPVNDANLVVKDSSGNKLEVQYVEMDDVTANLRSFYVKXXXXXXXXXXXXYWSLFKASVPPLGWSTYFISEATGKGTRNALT
Protocol: as §1, with “The reactions were stopped by addition of 70 μl 0.4M glycine (pH 10.4) during the exponential phase of the reaction, which had been determined at the beginning using uninhibited assays in which water replaced mulberry fractions.” left out
as §2

[5] = test system: β-D-mannosidase Cellulomonas fimi; assay: Glycosidase assay, β-D-mannosidase (Cellulomonas fimi); details: % inhibition; for β-D-mannosidase Cellulomonas fimi: Table 6, concentration not given (method: 10 mg/ml solution)
Protocol: as §1

[6] = test system: naringinase (P. decumbens); assay: Glycosidase assay, naringinase (P. decumbens); details: % inhibition
Protocol: as §1, §2

[7] = test system: N-acetyl-β-D-gluc (Bovine kidney); assay: Glycosidase assay, N-acetyl-β-D-gluc (Bovine kidney)
Protocol: as §1, §2

[8] = test system: N-acetyl-β-D-gluc (Jack bean); assay: Glycosidase assay, N-acetyl-β-D-gluc (Jack bean)
Protocol: as §1, §2

[9] = target: T6, amyloglucosidase (A. niger) (Aspergillus niger, UniProt P69328); assay: Glycosidase assay, amyloglucosidase (A. niger); details: % inhibition; for amyloglucosidase A. niger: Table 6, concentration not given (method: 10 mg/ml solution)
T6 construct: purchased Sigma-Aldrich
T6 sequence (P69328 25-640): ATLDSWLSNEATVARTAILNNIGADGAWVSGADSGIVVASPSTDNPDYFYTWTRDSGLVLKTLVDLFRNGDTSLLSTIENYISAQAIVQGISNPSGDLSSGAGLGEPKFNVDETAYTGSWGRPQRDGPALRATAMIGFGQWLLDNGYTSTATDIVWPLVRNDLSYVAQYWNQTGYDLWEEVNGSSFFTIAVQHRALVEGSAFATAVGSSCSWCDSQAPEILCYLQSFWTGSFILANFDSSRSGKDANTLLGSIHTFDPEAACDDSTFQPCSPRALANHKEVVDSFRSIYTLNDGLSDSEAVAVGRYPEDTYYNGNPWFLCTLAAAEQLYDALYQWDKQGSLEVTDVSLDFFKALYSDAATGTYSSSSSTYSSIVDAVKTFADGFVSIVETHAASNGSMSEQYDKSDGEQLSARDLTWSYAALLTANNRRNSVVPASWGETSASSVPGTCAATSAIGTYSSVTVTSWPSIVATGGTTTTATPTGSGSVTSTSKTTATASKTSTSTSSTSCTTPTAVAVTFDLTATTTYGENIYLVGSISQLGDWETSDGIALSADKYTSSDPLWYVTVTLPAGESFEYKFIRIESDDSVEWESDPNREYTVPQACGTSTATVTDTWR
Protocol: as §1, §2

[10] = target: T7, β-glucuronidase (bovine liver) (Bos taurus, UniProt A3KMY8); assay: Glycosidase assay, β-glucuronidase (bovine liver); details: Table 6; % inhibition; concentration not given (method: 10 mg/ml solution)
T7 construct: purchased Sigma-Aldrich; host or cells: bovine liver
T7 sequence (A3KMY8 1-652): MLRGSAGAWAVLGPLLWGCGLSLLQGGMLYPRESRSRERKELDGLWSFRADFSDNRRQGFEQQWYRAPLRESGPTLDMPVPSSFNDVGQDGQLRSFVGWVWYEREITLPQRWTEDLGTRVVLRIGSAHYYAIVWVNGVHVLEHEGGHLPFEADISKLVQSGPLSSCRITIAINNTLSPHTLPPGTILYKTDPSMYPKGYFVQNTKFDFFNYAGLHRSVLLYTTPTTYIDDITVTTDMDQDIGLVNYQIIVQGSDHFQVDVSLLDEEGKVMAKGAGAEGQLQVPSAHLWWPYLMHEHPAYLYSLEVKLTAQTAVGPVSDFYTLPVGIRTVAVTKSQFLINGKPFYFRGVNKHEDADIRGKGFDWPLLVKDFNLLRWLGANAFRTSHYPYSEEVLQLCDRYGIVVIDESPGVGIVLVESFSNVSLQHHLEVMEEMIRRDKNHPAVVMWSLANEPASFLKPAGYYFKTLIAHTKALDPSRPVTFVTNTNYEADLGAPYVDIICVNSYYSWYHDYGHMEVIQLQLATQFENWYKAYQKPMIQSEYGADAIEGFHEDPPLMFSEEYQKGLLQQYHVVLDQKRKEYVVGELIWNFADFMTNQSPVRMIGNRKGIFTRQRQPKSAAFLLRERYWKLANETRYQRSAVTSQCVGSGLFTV
Protocol: as §1, §2

glycogen phosphorylase = assay: Glycogen phosphorylase assay; details: for GP Inhibition (%): at 400 μM; for glycogen phosphorylase inhibition: words, no concentration
α-L-fucosidase (bovine) = target: T8, α-L-fucosidase (bovine) (Bos taurus, UniProt Q2KIM0); assay: Glycosidase assay, α-L-fucosidase (bovine); details: Table 16; % inhibition; concentration not given
T8 construct: purchased Sigma-Aldrich
T8 sequence (Q2KIM0 23-468): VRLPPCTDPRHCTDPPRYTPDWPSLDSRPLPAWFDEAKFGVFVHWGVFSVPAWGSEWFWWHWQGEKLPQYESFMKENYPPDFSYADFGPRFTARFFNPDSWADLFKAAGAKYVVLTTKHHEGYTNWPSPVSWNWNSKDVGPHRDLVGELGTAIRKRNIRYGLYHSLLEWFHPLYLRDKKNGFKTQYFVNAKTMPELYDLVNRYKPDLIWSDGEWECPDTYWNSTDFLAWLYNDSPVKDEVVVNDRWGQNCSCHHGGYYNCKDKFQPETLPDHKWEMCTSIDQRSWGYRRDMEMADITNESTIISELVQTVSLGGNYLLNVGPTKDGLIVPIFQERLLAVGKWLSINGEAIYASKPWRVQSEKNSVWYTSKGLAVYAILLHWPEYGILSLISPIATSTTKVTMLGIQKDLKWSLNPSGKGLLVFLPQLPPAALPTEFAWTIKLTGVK
Protocol: as §1

β-D-glucosidase (yeast) = assay: Glycosidase assay, β-D-glucosidase (yeast); details: Table 16; % inhibition; concentration not given
Protocol: as §1

[11] = Table 6, % inhibition, concentration not given (method: 10 mg/ml solution)
[12] = Table 6, concentration not given (method: 10 mg/ml solution)
[13] = Table 16, % inhibition, concentration not given
[14] = Table 16, concentration not given
[15] = Table 9, sugar fractions, 10 mM p-nitrophenyl substrate, concentration given only for sucrose (10 mg/ml)

T1 sequence (P53341 whole entry): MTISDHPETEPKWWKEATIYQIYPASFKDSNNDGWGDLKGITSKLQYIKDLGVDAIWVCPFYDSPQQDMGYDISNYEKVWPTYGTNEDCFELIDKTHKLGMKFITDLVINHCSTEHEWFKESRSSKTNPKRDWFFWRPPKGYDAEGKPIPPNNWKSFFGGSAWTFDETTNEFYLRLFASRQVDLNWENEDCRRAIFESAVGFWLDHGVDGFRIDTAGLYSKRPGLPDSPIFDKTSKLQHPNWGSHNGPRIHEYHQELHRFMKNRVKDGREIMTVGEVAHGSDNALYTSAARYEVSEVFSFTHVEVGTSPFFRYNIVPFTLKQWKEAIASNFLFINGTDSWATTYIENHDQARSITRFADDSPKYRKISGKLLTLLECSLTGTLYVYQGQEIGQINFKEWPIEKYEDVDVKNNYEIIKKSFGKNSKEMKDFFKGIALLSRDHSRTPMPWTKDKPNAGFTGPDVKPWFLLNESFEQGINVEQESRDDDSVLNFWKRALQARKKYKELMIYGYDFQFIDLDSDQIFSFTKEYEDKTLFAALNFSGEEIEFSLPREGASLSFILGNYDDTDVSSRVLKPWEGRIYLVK

Compound	α-D-glucosidase (Yeast) (α-D-glucosidase (Yeast); [11]) [%]	α-D-glucosidase (Bacillus) [1, 11] [%]	α-D-glucosidase (Rice) (α-D-glucosidase (rice); [11]) [%]	β-D-glucosidase almond (β-D-glucosidase (almond); [11]) [%]	α-D-galactosidase coffee bean [2] [%]	β-D-galactosidase (Bovine) [3, 11] [%]	α-D-mannosidase (Jack bean) [4, 12] [%]	β-D-mannosidase Cellulomonas fimi [5] [%]	Naringinase (P. decumbens) [6, 12] [%]	N-acetyl-β-D-gluc (Bovine kidney) [7, 11] [%]	N-acetyl-β-D-gluc Jack bean [8, 11] [%]	amyloglucosidase A. niger [9] [%]	β-glucuronidase bovine liver [10] [%]	GP Inhibition (%) (glycogen phosphorylase)	glycogen phosphorylase inhibition (glycogen phosphorylase)	also measured
C[n+]1cc(C(=O)[O-])ccc1O [6OH trig, 6-hydroxytrigonelline]	0	−36	0	0	−16	8	0	0	0	12	−11	0	0	11.9		
OC[C@H]1NC[C@@H](O)[C@@H]1O [DAB, 1,4-dideoxy-1,4-imino-D-arabinitol]																α-D-glucosidase (Yeast) (α-D-glucosidase (Yeast); [13]): 100%; α-D-glucosidase (Bacillus) [1, 13]: 93%; α-D-glucosidase (Rice) (α-D-glucosidase (rice); [13]): 100%; α-D-galactosidase (Green coffee beans) [2, 14]: 7%; β-D-galactosidase (Bovine) [3, 13]: 100%; α-L-fucosidase (Bovine) (α-L-fucosidase (bovine)): 5%; α-D-mannosidase (Jack bean) [4, 14]: 3%; β-D-mannosidase (C. fimi) [5, 14]: 95%; Naringinase (P. decumbens) [6, 14]: 3%; N-acetyl-β-D-gluc (Bovine kidney) [7, 13]: −8%; Amyloglucosidase [9, 14]: 47%; β-D-glucosidase (yeast) (β-D-glucosidase (yeast)): 100%
O=C(O)[C@@H]1CC[C@@H](O)CN1 [compound 900439]	0	0	0	0	−6	0	0	0	−6	9	8	0	0			
O=C(O)[C@@H]1CC[C@@H](O)CN1 [drawing 7]														0		
OC[C@H]1NCC[C@@H](O)[C@@H]1O [fagomine, Fagomine]															do not inhibit	
OC[C@H]1O[C@@](CO)(O[C@H]2O[C@H](CO)[C@@H](O)[C@H](O)[C@H]2O)[C@@H](O)[C@@H]1O [sucrose]															do not inhibit	α-D-glucosidase (Yeast) (α-D-glucosidase (Yeast); [15]): 0 % inhibition; α-D-glucosidase (Bacillus) [1, 15]: −7 % inhibition; α-D-glucosidase (Rice) (α-D-glucosidase (rice); [15]): 0 % inhibition; β-D-glucosidase almond (β-D-glucosidase (almond); [15]): 0 % inhibition; β-D-galactosidase (Bovine) [3, 15]: 0 % inhibition; N-acetyl-β-D-gluc (Bovine kidney) ([7]; Table 9, sucrose 10 mg/ml): 0 % inhibition; N-acetyl-β-D-gluc Jack bean [8, 15]: 0 % inhibition
C[n+]1cccc(C(=O)[O-])c1 [trigonellin HCl, trigonelline]	0	−12	0	0	0	0	0	0	0	−8	0	0	0	6.9	not greatly inhibitory	
